Where two headings read alike, the source gives them in different places.
Legend:
[1] = tested on: recurrent or metastatic nasopharyngeal carcinoma patient; assay: Single-arm phase II clinical trial of toripalimab: anti-tumour activity by RECIST v1.1 / irRECIST; assay type: in vivo, human
Description: Test drug: anti-PD-1 antibody toripalimab (WO 2014206107).
The subjects were evaluated every 8 weeks for the first year and every 12 weeks thereafter according to RECIST v1.1 and the Immune-Related Response Evaluation Criteria in Solid Tumour (irRECIST). The subjects were evaluated every 3 months after drug discontinuance.
This was a single-arm, phase II, open-label clinical trial. This study was conducted to evaluate the safety and anti-tumour activity of an anti-PD-1 antibody in treatment of a recurrent or metastatic nasopharyngeal carcinoma patient.

[2] = Immunogenicity: anti-drug antibodies (ADAs) in the phase II trial; assay type: in vivo, human
Text: Anti-drug antibodies (ADAs) were detected in 190 patients. Seven cases (3.7%) were positive for ADA, including four consecutive positive samples.

[3] = tested on: recurrent or metastatic nasopharyngeal carcinoma patient; assay type: in vivo, human
Description: The PD-L1 expression status in tumour biopsies was determined by SP142 IHC staining, with tumour proportion score (TPS) > 1% being determined as positive.
Tumour biopsy tissues and matched peripheral blood samples from subjects were subjected to whole exome sequencing (WES) to identify tumour-specific mutations. […] In this study, the top 10% or 20% cut-off values of TMB (2.9 Muts/Mb and 2.0 Muts/Mb, respectively) were selected for evaluation of clinical response.
The correlation between genomic changes and clinical efficacy was analysed.
Plasma was collected from patients before administration, and the number of copies of EBV DNA was analysed by qRT-PCR once every 4 weeks.

[4] = tested on: recurrent or metastatic nasopharyngeal carcinoma patient; details: human, in vivo
Text: Inclusion criteria: eligible subjects must (1) be 18 years old or older, (2) have recurrent or metastatic nasopharyngeal carcinoma, (3) be refractory to standard systemic therapy or have progressive disease after 6 months of radiotherapy and chemotherapy, (4) have an ECOG score of 0 or 1, (5) have the normal organ function within 10 days […] treatment, (6) have no history of autoimmune diseases or other malignant cancers, and (7) have not received any anti-PD-1/or anti-PD-L1 immunotherapy before.
Subjects must have an evaluable lesion according to RECIST v 1.1, have not received anti-tumour monoclonal antibody drug treatment within 4 weeks before treatment, have not received any anti-tumour drug treatment within 2 weeks before treatment, and have not received systemic steroid drug treatment within 7 days before treatment.
From Dec. 22, 2016 to Feb. 19, 2019, a total of 279 patients with recurrent or metastatic NPC were screened from 17 centres in Chinese mainland, and 190 patients were enrolled in this study. […] Of the two histological subtypes, 182 patients (95.8%) had non-keratinizing NPC and 8 patients (4.2%) had keratinizing NPC. There were 116 patients (61.1%) who had received at least two kinds of systemic therapy.
Test drug: anti-PD-1 antibody toripalimab (WO 2014206107). […]

[5] = Investigator, RECIST1.1, n = 190
[6] = Investigator, irRECIST, n = 190
[7] = at least two prior treatments (n = 116)
[8] = keratinizing versus non-keratinizing NPC

toripalimab
CR ([1]; IRC, RECIST1.1, n = 190): 5 (2.6%) | NE ([1]; IRC, RECIST1.1, n = 190): 28 (14.7%) | PD ([1]; IRC, RECIST1.1, n = 190): 86 (45.3%) | PR ([1]; IRC, RECIST1.1, n = 190): 34 (17.9%) | CR ([1]; IRC, RECIST v1.1, 190 patients): 5 cases | PR ([1]; IRC, RECIST v1.1, 190 patients): 34 cases | CR ([1]; IRC, irRECIST, n = 190): 5 (2.6%) | NE ([1]; IRC, irRECIST, n = 190): 28 (14.7%) | PD ([1]; IRC, irRECIST, n = 190): 71 (37.4%) | PR ([1]; IRC, irRECIST, n = 190): 34 (17.9%) | ORR ([1]; IRC, keratinizing NPC (n = 8)): 62.5% | ORR ([1]; IRC, non-keratinizing NPC (n = 182)): 18.7% | CR [1, 5]: 5 (2.6%) | DCR (%) [1, 5]: 88 (46.3%) | NE [1, 5]: 24 (12.6%) | ORR (%) [1, 5]: 40 (21.1%) | PD [1, 5]: 78 (41.1%) | PR [1, 5]: 35 (18.4%) | CR [1, 6]: 5 (2.6%) | DCR (%) [1, 6]: 103 (54.2%) | NE [1, 6]: 28 (14.7%) | ORR (%) [1, 6]: 44 (23.2%) | PD [1, 6]: 59 (31.1%) | PR [1, 6]: 39 (20.5%) | median DOR ([1]; all subjects): 12.8 months | median overall survival (mOS) ([1]; all subjects): 17.4 months | median progression-free survival (mPFS) ([1]; all subjects): 1.9 months | median time to response ([1]; all subjects): 1.8 months | patients who had died ([1]; as of Feb. 19, 2020, 190 patients): 49.5% | mOS [1, 7]: 15.1 months | mPFS [1, 7]: 2.0 months | median DOR [1, 7]: 21.5 months | OS ([1]; keratinizing NPC): not reached | PFS ([1]; keratinizing NPC): 16.6 months | HR for OS [1, 8]: 0.51 | HR for PFS [1, 8]: 0.46 | subjects who had reductions in target lesions relative to baseline ([1]; n = 190): 38.4% | subjects with a reduction greater than or equal to 30% in target lesions from baseline ([1]; n = 190): 25.3% | OS ([1]; non-keratinizing NPC): 15.1 months | PFS ([1]; non-keratinizing NPC): 1.9 months | ORR ([1]; patients who had received at least two prior treatments (n = 116)): 21.6% | median OS ([1]; subjects experiencing objective response (n = 39) or stable disease (n = 38)): not reached | median OS ([1]; subjects with progressive disease (n = 113)): 8.4 months | cases positive for ADA ([2]; 190 patients): 3.7% | difference in incidence of AEs, SAEs and AEs of grade 3 or above, drug discontinuance or dose delay, and clinical efficacy ([2]; between ADA positive and negative patients): no significant difference | PFS ([3]; 10% of patients with the highest TMB value, similar to the 90% with the lowest TMB value): 1.9 months | ORR ([3]; 11 patients with genome amplification of CCND1 and/or FGF14, FGF3 or FGF4 chromosome 11q13 region): 0% | median time of at least 2-fold increase in plasma EBV DNA copies prior to imaging-confirmed progressive disease ([3]; 14 patients who experienced progressive disease): 3 months | ORR ([3]; 19 patients with ETV6 mutations): 5.3% | ORR ([3]; PD-L1+ patients): 27.1% | ORR ([3]; PD-L1- patients): 19.4% | mOS ([3]; PD-L1 > 25%): not reached | mPFS ([3]; PD-L1 > 25%): 7.2 months | HR for OS ([3]; PD-L1 > 25% versus ≤ 25%): 0.57 | HR for PFS ([3]; PD-L1 > 25% versus ≤ 25%): 0.64 | mPFS ([3]; PD-L1 ≤ 25%): 1.9 months | ORR ([3]; at least 2-fold decrease in plasma EBV DNA copies on day 28 (n = 60)): 48.3% | ORR ([3]; baseline EBV titre < 10000 IU/mL): 26.7% | ORR ([3]; baseline EBV titre ≥ 10000 IU/mL): 15.4% | OS ([3]; high TMB patients): 9.2 months | ORR ([3]; less than 2-fold decrease in plasma EBV DNA copies on day 28 (n = 88)): 5.7% | OS ([3]; low TMB patients): 17.4 months | ORR ([3]; patients with PD-L1 > 25%): 38.1% | ORR ([3]; patients with PD-L1 ≤ 25%): 19.3% | median decrease in the number of copies of EBV DNA in plasma from baseline to the nadir ([3]; patients with objective response (n = 34)): 31 fold | change in the number of copies of EBV DNA in plasma from baseline ([3]; patients with progressive disease (n = 80)): no change | decrease in the number of copies of EBV DNA in plasma from baseline to the nadir ([3]; patients with stable disease (n = 35)): 3 fold | ORR ([3]; top 10% of patients by TMB (cut-off 2.9 Muts/Mb)): 17.6% | ORR ([3]; top 20% of patients by TMB (cut-off 2.0 Muts/Mb)): 14.3% | patients subjected to dose interruption due to TRAEs [4]: 3.7%

From patent US20230365691A1, “USE OF ANTI-PD-1 ANTIBODY IN TREATMENT OF NASOPHARYNGEAL CARCINOMA” (SHANGHAI JUNSHI BIOSCIENCES CO., LTD., priority 2020, published 2023)
